According to patent US5358945A, “Pyrimidine compound and pharmaceutically acceptable salts thereof” (Mitsui Petrochemical Industries, Ltd., priority 1990, dated 1994):

What was measured:
Mouse neuro 2a cells = assay: Neurite outgrowth of mouse neuroblastoma neuro 2a cells (Table 7); format: cell-based; conditions: mean ± S.D.
Procedure: The biological activities in vitro of the compounds of formula (I) on cells of the nervous system were tested. The cells tested were mouse neuroblastoma cell line neuro-2a (Dainippon Pharmaceutical Co., Ltd.) which have been established as the cells of the nervous system. The above nerve cells were grown in an incubator at 37° C. in the presence of 5% carbon dioxide gas exponentially, and the cultured for a certain period of time together with the compounds of formula (I).
The effects of the compounds of this invention on neuroblastoma cells were examined by the following method.
Mouse neuro 2a cells in the logarithmic growth period in the Dulbecco's modified Eagle's medium [DMEM, containing 100 units/ml of penicillin G sodium and 100 micrograms/ml of streptomycin sulfate] containing 10% of FCS were seeded in a 48-well plate so that the number of cells was 1,000 cells/well, and cultured for one day in 0.25 ml of the culture fluid in each well in an incubator containing 5% of carbon dioxide gas in air at 37° C. The medium was replaced by a medium containing each antibiotics and FCS and the cells were further cultured for 24 hours. Then, a 4% aqueous glutaraldehyde solution in the same amount as a medium (0.25 ml) was added, and the culture was left to stand at room temperature for 2 hours to fix the cells. After washing with water, a 0.05% aqueous solution of methylene blue was added to stain the cells. Under a microscope, the number of cells containing outgrown neurites (cells having at least one neurite with a length of at least two times as large as the long diameter of the cell) was counted visually, and the proportion of these cells in the entire cells was calculated. The well was observed over 5 or more visual fields (at least 2% of the entire surface area of the well) continuous to the left and right from a mark put at the center of the well, and more than 200 cells was counted. One drug compound was used in 6 different concentrations at most, and three runs were conducted for each concentration.

[1] = tested on: Mouse neuroblastoma cells NS-20Y; assay: Neurite appearance in mouse neuroblastoma NS-20Y cells (Table 8); format: cell-based;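 also: cells grown in polyornithine-coated dishes, with timing counted from the start of culture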
mouse = assay: Acute toxicity in mouse (Table 10); format: in vivo
Procedure: The acute toxicity of the compounds of the invention was examined by the following method.
Male ddy-strain 5-week old mice, 4-6 per group, were used as experimental animals. Each of the compounds was dissolved or suspended in saline and administered perorally (p.o.) or intraperitoneally (i.p.), and the toxicity of the compound was assessed 24 hours after the administration.

[2] = i.p., 24 hours after administration

SMILES	Ratio of the number of cells having neurites with a length of at least two times as large as the diameter of cells to the total number of cells (Mouse neuro 2a cells; 0.03 mM)	Ratio of the number of cells having neurites with a length of at least two times as large as the diameter of cells to the total number of cells (Mouse neuro 2a cells; 0.1 mM)	Ratio of the number of cells having neurites with a length of at least two times as large as the diameter of cells to the total number of cells (Mouse neuro 2a cells; 0.3 mM)	Ratio of the number of cells having neurites with a length of at least two times as large as the diameter of cells to the total number of cells (Mouse neuro 2a cells; 1 mM)	The number of cells in which neurites appeared/Total number of cells ([1]; 24 hour, 0.2 mM)	The number of cells in which neurites appeared/Total number of cells ([1]; 24 hour, 0.5 mM)	The number of cells in which neurites appeared/Total number of cells ([1]; 48 hour, 0.2 mM)	The number of cells in which neurites appeared/Total number of cells ([1]; 48 hour, 0.5 mM)	Estimated LD50 (mouse; [2])	The number of cells in which neurites appeared/Total number of cells ([1]; 48 hour, 0.1 mM)	The number of cells in which neurites appeared/Total number of cells ([1]; 24 hour, 0.1 mM)	Ratio of the number of cells having neurites with a length of at least two times as large as the diameter of cells to the total number of cells (Mouse neuro 2a cells; 0.01 mM)	Estimated LD50 (mouse; in vivo, ip)
O=C1CCCN1c1ccnc(N2CCSCC2)n1 [Compound 400]	5.0 ± 0.1%	6.3 ± 0.7%	11.2 ± 1.5%	12.1 ± 1.4%	8/50	9/50	11/50	13/50	> 500 mg/kg				
CN1CCN(c2nccc(N3CCCC3=O)n2)CC1 [Compound 408]	4.9 ± 0.2%		4.4 ± 0.2%		7/50	10/50	8/50	11/50	> 500 mg/kg				
O=C(c1ccccc1)N1CCN(c2ccnc(N3CCC(c4ccccc4)CC3)n2)CC1 [Compound 248]					3/50				> 1000 mg/kg	3/50			
O=C1CCCN1c1ccnc(N2CCN(Cc3ccccc3)CC2)n1 [Compound 424]	4.5 ± 2.4%	5.9 ± 1.7%	5.2 ± 2.5%		5/50				> 500 mg/kg	2/50	3/50		
CN(C(=O)c1ccc(C=O)cc1)c1ccnc(N2CCC(c3ccccc3)CC2)n1 [Compound 152]	16.5 ± 1.8%									3/50	2/50	5.2 ± 0.4%	> 1000 mg/kg
CN(C(=O)c1ccc(S(=O)(=O)F)cc1)c1ccnc(N2CCC(c3ccccc3)CC2)n1 [Compound 136]	5.2 ± 1.8%	5.4 ± 1.7%	10.3 ± 0.2%	11.8 ± 1.4%		4/50	3/50		> 1000 mg/kg				
CC1CCCN(c2nccc(N3CCCC3=O)n2)C1 (stereo not drawn) [Compound 336]	4.0 ± 1.0%	5.7 ± 1.6%	21.3 ± 3.0%	21.2 ± 1.6%						5/50	3/50		250 to 500 mg/kg
O=C1CCCCN1c1ccnc(N2CCCCC2)n1 [Compound 288]									> 1000 mg/kg				
O=C1CCCN1c1ccnc(N2CCCCC2)n1 [Compound 273]		7.7 ± 2.0%	24.0 ± 3.2%	10.3 ± 4.0%	15/50	18/50	16/50	22/50	> 500 mg/kg	8/50	10/50	5.3 ± 0.8%	
CN(C(=O)c1ccc2ccccc2c1)c1ccnc(N2CCC(c3ccccc3)CC2)n1 [Compound 144]		4.2 ± 0.6%				3/50				4/50		5.1 ± 0.9%	
O=C(c1ccccc1)N1CCN(c2ccnc(N3CCCCC3)n2)CC1 [Compound 232]					3/50					4/50			> 1000 mg/kg
CCCCN(CCCC)c1nccc(N2CCCC2=O)n1 [Compound 440]		4.3 ± 0.8%				4/50			> 500 mg/kg	4/50	3/50		
O=C(O)/C=C\C(=O)O.O=CN1CCN(c2ccnc(N3CCCCC3)n2)CC1 [Compound 224, 4-(N-formylpiperazino)-2-piperidino pyrimidine maleate]		8.9 ± 1.5%	21.4 ± 3.3%							3/50	2/50		
CN(C(=O)c1ccc(O)cc1)c1ccnc(N2CCC(c3ccccc3)CC2)n1 [Compound 264]						3/50	3/50		> 1000 mg/kg				
O=C1CCCN1c1ccnc(N2CCCCC2)n1 [Compound 272]		10.5 ± 2.5%	25.1 ± 2.7%	20.4 ± 4.9%								5.4 ± 0.4%	250 to 500 mg/kg
CC(=O)N1CCN(c2ccnc(N3CCC(c4ccccc4)CC3)n2)CC1 [Compound 256]					3/50		3/50		> 1000 mg/kg	4/50	3/50		
O=C1CCCN1c1ccnc(N2CCC(c3ccccc3)CC2)n1 [Compound 280]		6.9 ± 1.4%	7.5 ± 1.1%	8.1 ± 6.3%					> 1000 mg/kg			7.1 ± 1.7%	
CC(=O)N1CCN(c2ccnc(N3CCCCC3)n2)CC1 [Compound 240]						5/50	5/50	6/50			3/50		> 1000 mg/kg
O=CN1CCN(c2ccnc(N3CCCCC3)n2)CC1 [Compound 223]									> 1000 mg/kg				
CN(C(=O)c1ccccc1)c1ccnc(N2Cc3ccccc3C2)n1 [Compound 184]		0.9 ± 0.8%								3/50	2/50	0.5 ± 0.8%	
O=C1CCCCN1c1ccnc(N2CCC(c3ccccc3)CC2)n1 [Compound 296]									> 1000 mg/kg				
